In paper PMC9303312, “Balancing Histone Deacetylase (HDAC) Inhibition and Drug‐likeness: Biological and Physicochemical Evaluation of Class I Selective HDAC Inhibitors” (Chemmedchem, 2022):
≈ marks a conversion by molar mass, not a printed value. Where two headings read alike, the source gives them in different places. Each block holds one compound with its values, some of them ahead of it.

How the values were obtained:
HDAC3/NcoR2 = HDAC3/NcoR2 (Homo sapiens, UniProt O15379); experiment: In vitro HDAC inhibition preincubation assay (ZMAL substrate)
[1] = Solubility in PBS buffer by OECD flask method with HPLC quantification; assay type: physicochemical
[2] = LogD7.4 by OECD slow-stirring method with HPLC quantification; settings: 1-octanol/PBS buffer (mutually saturated)
HDAC1 [3] = target: T1, HDAC1 (Homo sapiens, UniProt Q13547); experiment: In vitro HDAC inhibition preincubation assay (ZMAL substrate)
HDAC2 [4] = target: T2, HDAC2 (Homo sapiens, UniProt Q92769); experiment: as above
human recombinant HDAC6 = target: T3, human recombinant HDAC6 (Homo sapiens, UniProt Q9UBN7); experiment: as above
T3 sequence (Q9UBN7 1-1215): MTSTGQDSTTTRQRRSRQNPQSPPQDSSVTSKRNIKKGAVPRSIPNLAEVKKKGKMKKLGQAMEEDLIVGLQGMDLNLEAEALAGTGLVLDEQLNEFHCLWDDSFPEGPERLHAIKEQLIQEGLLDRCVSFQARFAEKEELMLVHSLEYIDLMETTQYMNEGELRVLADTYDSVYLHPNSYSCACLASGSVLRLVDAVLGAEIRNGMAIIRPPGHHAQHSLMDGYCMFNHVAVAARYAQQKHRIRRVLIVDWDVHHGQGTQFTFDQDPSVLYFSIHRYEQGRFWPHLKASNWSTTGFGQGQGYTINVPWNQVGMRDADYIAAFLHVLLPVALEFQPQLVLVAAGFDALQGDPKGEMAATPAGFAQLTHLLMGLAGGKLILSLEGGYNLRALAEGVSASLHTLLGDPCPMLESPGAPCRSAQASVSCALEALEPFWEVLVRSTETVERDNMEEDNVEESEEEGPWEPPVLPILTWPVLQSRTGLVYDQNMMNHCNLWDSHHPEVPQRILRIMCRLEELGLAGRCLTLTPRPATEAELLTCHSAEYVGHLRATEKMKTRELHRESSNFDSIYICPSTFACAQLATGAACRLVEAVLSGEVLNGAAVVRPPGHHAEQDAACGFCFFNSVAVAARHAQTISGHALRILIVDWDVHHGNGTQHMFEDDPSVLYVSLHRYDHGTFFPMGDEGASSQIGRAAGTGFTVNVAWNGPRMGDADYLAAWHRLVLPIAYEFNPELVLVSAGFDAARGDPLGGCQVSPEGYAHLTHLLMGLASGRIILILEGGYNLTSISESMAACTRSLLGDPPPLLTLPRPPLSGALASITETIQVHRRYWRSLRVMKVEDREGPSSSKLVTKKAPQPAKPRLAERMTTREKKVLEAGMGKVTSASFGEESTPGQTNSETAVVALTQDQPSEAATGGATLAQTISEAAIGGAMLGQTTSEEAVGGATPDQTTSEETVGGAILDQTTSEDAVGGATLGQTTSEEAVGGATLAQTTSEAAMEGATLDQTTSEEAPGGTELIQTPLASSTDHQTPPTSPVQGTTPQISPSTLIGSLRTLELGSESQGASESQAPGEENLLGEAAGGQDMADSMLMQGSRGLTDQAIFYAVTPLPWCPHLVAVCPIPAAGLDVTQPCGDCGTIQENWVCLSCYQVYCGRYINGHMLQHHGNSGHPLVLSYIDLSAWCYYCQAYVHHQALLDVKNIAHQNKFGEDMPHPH

[5] = tested on: MCF‐7 breast cancer cell line; experiment: WST-8 cell viability assay; settings: Homo sapiens, MCF7, 120 h, read-out: IC50 MCF‐7
[6] = tested on: T‐47D breast cancer cell line; experiment: WST-8 cell viability assay; settings: Homo sapiens, T47D, 120 h, read-out: IC50 T‐47D
[7] = tested on: BT‐474 breast cancer cell line; experiment: WST-8 cell viability assay; settings: Homo sapiens, BT-474, 120 h, read-out: IC50 BT‐474
MCF‐7 cells = experiment: Modified wound healing (migration) assay; assay type: cell-based, human; settings: MCF-7, 10 μM, followed over 97 h, compared to DMSO control
[8] = tested on: acetylated α‐tubulin (HDAC6 activity) in MCF‐7 cells; experiment: Western blot target engagement in MCF-7 cells: acetylated α-tubulin; assay type: cell-based, human; settings: MCF-7 cell lysates after 24-hour treatment
HDAC2 [9] = target: T2, HDAC2; experiment: IC50-shift experiments (varied preincubation time); assay type: biochemical; design: purchased BPS Bioscience 50052; settings: triplicates
HDAC1 [10] = target: T1, HDAC1; experiment: Binding kinetics via the Progression Method; assay type: biochemical; settings: relationship between kobs and [I]; triplicates
HDAC3 = HDAC3 (Homo sapiens, UniProt O15379); experiment: Binding kinetics via the Progression Method; assay type: biochemical
[11] = 25 °C, pH 7.4, aqueous buffer, thermodynamic from solid, pH=7.4, flask method, 25 °C, 72 h, mean ±SD, read-out: Solubility
[12] = pH 7.4, LogD7.4, slow-stirring method, 1-octanol/PBS buffer pH 7.4, 25 °C, 48 h

Chain of HDAC3/NcoR2 (O15379 whole entry): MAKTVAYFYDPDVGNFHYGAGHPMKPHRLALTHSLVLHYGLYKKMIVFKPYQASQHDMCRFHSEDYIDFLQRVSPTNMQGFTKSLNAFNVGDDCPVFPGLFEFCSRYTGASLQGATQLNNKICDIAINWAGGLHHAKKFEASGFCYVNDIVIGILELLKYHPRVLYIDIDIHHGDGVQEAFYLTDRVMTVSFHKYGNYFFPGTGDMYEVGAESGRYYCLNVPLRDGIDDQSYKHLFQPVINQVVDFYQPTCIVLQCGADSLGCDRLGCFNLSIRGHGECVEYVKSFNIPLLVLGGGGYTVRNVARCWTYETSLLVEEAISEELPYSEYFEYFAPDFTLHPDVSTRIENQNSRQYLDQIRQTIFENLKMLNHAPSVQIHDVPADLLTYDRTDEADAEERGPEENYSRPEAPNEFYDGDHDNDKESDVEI
Chain of HDAC3/NcoR2 (Q9Y618 395-489 partner limits assumed): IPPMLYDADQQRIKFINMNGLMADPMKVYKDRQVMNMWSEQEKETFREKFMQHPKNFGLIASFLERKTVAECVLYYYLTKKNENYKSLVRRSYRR
T2 sequence (Q92769 whole entry): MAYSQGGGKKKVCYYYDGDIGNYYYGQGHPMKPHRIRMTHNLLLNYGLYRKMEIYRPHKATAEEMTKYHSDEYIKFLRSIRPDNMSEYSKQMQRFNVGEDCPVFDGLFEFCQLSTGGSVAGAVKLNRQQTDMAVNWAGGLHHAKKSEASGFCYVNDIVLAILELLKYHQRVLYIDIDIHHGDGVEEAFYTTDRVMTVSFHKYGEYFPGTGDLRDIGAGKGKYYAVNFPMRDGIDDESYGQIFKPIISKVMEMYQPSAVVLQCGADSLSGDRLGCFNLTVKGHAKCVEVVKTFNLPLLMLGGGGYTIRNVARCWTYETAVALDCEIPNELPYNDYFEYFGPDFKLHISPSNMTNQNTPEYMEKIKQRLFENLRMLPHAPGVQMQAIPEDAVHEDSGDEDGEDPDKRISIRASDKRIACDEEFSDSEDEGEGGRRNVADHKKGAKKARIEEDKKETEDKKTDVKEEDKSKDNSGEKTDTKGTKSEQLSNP
T1 sequence (Q13547 whole entry): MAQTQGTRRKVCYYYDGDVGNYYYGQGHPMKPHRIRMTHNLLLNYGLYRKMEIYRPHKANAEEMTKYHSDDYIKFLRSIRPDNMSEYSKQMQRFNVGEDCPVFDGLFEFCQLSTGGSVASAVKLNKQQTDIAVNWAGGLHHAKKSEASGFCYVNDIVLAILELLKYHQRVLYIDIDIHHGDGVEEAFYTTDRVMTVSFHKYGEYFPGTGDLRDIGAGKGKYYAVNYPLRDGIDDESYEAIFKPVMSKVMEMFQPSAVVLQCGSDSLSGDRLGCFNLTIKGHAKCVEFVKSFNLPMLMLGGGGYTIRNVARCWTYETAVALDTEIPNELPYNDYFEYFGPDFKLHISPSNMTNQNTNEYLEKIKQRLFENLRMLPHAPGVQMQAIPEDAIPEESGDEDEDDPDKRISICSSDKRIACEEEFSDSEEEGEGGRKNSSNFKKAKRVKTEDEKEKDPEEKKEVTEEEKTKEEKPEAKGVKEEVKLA
Chain of HDAC3 (O15379 whole entry): as the sequence (O15379 whole entry) above
Chain of HDAC3 (Q9Y618 395-489 partner limits assumed): as the sequence (Q9Y618 395-489 partner limits assumed) above

IC50 (HDAC3/NcoR2): 17400 nM
solubility at 72 h [1, 11]: 42 ± 0.19 µg/mL (≈ 121 µM)
logD at 48 h [2, 12]: 1.77
IC50 (HDAC1 [3]): 207 ± 4.4 nM
IC50 (HDAC2 [4]): 333 ± 5.1 nM
IC50 (human recombinant HDAC6): > 10000 nM
Compound: CC(=O)Nc1ccc(C(=O)Nc2cc(-c3ccccn3)ccc2N)cc1 [6 f]

solubility at 72 h [1, 11]: 200 ± 1.8 µg/mL (≈ 743 µM)
logD at 48 h [2, 12]: 0.84
Compound: CC(=O)Nc1ccc(C(=O)Nc2ccccc2N)cc1 [CI‐994, tacedinaline, reference compound]

solubility at 72 h [1, 11]: 0.74 ± 0.01 µg/mL (≈ 2.11 µM)
logD at 48 h [2, 12]: 2.8
Compound: CC(=O)Nc1ccc(C(=O)Nc2cc(-c3cccs3)ccc2N)cc1 [6 c]

IC50 (HDAC3/NcoR2): 636 ± 49.5 nM
solubility at 72 h [1, 11]: 37.7 ± 3.61 µg/mL (≈ 109 µM)
logD at 48 h [2, 12]: 1.7
IC50 (HDAC1 [3]): 76.7 ± 9.2 nM
IC50 (HDAC2 [4]): 101 ± 5.4 nM
IC50 (human recombinant HDAC6): > 10000 nM
Compound: CC(=O)Nc1ccc(C(=O)Nc2cc(-c3cccnc3)ccc2N)cc1 [6 e]

IC50 (HDAC3/NcoR2): 2870 nM
solubility at 72 h [1, 11]: 1.58 ± 0.14 µg/mL (≈ 4.34 µM)
logD at 48 h [2, 12]: 1.79
IC50 (HDAC1 [3]): 153 ± 22.1 nM
IC50 (HDAC2 [4]): 228 ± 7.8 nM
IC50 (human recombinant HDAC6): > 10000 nM
Compound: CC(=O)Nc1ccc(C(=O)Nc2cc(-c3cccnc3F)ccc2N)cc1 [6 h]

IC50 (HDAC3/NcoR2): 3960 nM
solubility at 72 h [1, 11]: 1.49 ± 0.14 µg/mL (≈ 4.31 µM)
logD at 48 h [2, 12]: 2.63
IC50 (HDAC1 [3]): 4.5 ± 0.1 nM
IC50 (HDAC2 [4]): 51.4 ± 4.9 nM
IC50 (human recombinant HDAC6): > 10000 nM
Compound: CC(=O)Nc1ccc(C(=O)Nc2cc(-c3ccccc3)ccc2N)cc1 [6 a]

IC50 (HDAC3/NcoR2): 767 ± 31.7 nM
solubility at 72 h [1, 11]: 7.66 ± 0.08 µg/mL (≈ 21 µM)
logD at 48 h [2, 12]: 1.97
IC50 (HDAC1 [3]): 93.5 ± 2.4 nM
IC50 (HDAC2 [4]): 118 ± 4 nM
IC50 (human recombinant HDAC6): > 10000 nM
Compound: CC(=O)Nc1ccc(C(=O)Nc2cc(-c3ccc(F)nc3)ccc2N)cc1 [6 g]

More lines, now with the values behind:

Compound: CC(=O)Nc1ccc(C(=O)Nc2cc(-c3ccc(F)cc3)ccc2N)cc1 [6 b]
IC50 (HDAC3/NcoR2): 2000 nM
solubility at 72 h [1, 11]: 0.45 ± 0.04 µg/mL (≈ 1.24 µM)
logD at 48 h [2, 12]: 3.41
IC50 (HDAC1 [3]): 4.4 ± 0.1 nM
IC50 (HDAC2 [4]): 44.7 ± 6.9 nM
IC50 (human recombinant HDAC6): > 10000 nM

Compound: CC(=O)Nc1ccc(C(=O)Nc2cc(-c3ccnc(F)c3)ccc2N)cc1 [6 i]
IC50 (HDAC3/NcoR2): 5870 nM
solubility at 72 h [1, 11]: 3.72 ± 0.44 µg/mL (≈ 10.2 µM)
logD at 48 h [2, 12]: 2.2
IC50 (HDAC1 [3]): 329 ± 20.8 nM
IC50 (HDAC2 [4]): 211 ± 5.4 nM
IC50 (human recombinant HDAC6): > 10000 nM

Compound: CN(C)c1ccc(C(=O)N(CC(=O)NCc2ccccc2)Cc2ccc(C(=O)Nc3cc(-c4ccncc4)ccc3N)cc2)cc1 [10 a]
IC50 [5]: 3240 ± 820 nM
IC50 (HDAC3/NcoR2): > 6670 nM
IC50 [6]: 2570 ± 930 nM
IC50 (HDAC1 [3]): 41.8 ± 0.2 nM
IC50 (HDAC2 [4]): 100 ± 2.6 nM
IC50 [7]: 3930 ± 560 nM

Compound: CN(C)c1ccc(C(=O)N(CC(=O)NC(C)(C)C)Cc2ccc(C(=O)Nc3cc(-c4ccncc4)ccc3N)cc2)cc1 [10 c]
IC50 [5]: 1620 ± 320 nM
IC50 (HDAC3/NcoR2): 16800 nM
effect on cell migration (wound closure) (MCF‐7 cells): attenuated cell migration comparably and significantly
effect on cell migration (wound closure) (MCF‐7 cells; listed as LSH‐A54): attenuated cell migration significantly
IC50 [6]: 1580 ± 480 nM
solubility at 72 h [1, 11]: 7.48 ± 0.33 µg/mL (≈ 12.9 µM)
logD at 48 h [2, 12]: 2.29
IC50 (HDAC2 [4]): 59.3 ± 7.9 nM
acetylated α‐tubulin (western blot) [8]: non‐detectable
IC50 [7]: 2550 ± 400 nM
IC50 (HDAC2 [9]; HDAC2 IC50, preincubation 5 min, preincubation time 5 min at 20°C): 117 nM
IC50 (HDAC2 [9]; HDAC2 IC50, preincubation 15 min, preincubation time 15 min at 20°C): 106 nM
IC50 (HDAC2 [9]; HDAC2 IC50, preincubation 30 min, preincubation time 30 min at 20°C): 109 nM
IC50 (HDAC2 [9]; HDAC2 IC50, preincubation 60 min, preincubation time 60 min at 20°C): 84 nM
IC50 (HDAC2 [9]; HDAC2 IC50, preincubation 120 min, preincubation time 120 min at 20°C): 78.1 nM
IC50 (human recombinant HDAC6): > 10000 nM

Compound: Nc1ccccc1NC(=O)c1ccc(CNC(=O)OCc2cccnc2)cc1 [entinostat, reference compound]
binding mechanism at HDAC1 (HDAC1 [10]): slow-binding Mechanism II
IC50 [5]: 8980 ± 3000 nM
effect on cell migration (wound closure) (MCF‐7 cells): no significant effect on cell migration
IC50 [6]: 2910 ± 890 nM
acetylated α‐tubulin (western blot) [8]: non‐detectable
IC50 [7]: 7090 ± 1000 nM

Compound: CN(C)c1ccc(C(=O)N(CC(=O)NC2CCCCC2)Cc2ccc(C(=O)Nc3cc(-c4ccncc4)ccc3N)cc2)cc1 [10 b]
IC50 [5]: 4330 ± 1540 nM
IC50 (HDAC3/NcoR2): > 3330 nM
IC50 [6]: 1450 ± 90 nM
solubility at 72 h [1, 11]: 1.99 ± 0.04 µg/mL (≈ 3.29 µM)
logD at 48 h [2, 12]: 2.68
IC50 (HDAC1 [3]): 41.1 ± 3.7 nM
IC50 (HDAC2 [4]): 85.5 ± 11.6 nM
IC50 [7]: 2930 ± 430 nM
IC50 (human recombinant HDAC6): > 10000 nM

Compound: O=C(CCCCCCC(=O)Nc1ccccc1)NO [vorinostat, reference compound]
binding mechanism at HDAC1 (HDAC1 [10]): fast‐on/fast‐off binding kinetic
binding mechanism at HDAC3 (HDAC3): fast‐on/fast‐off binding kinetic
solubility at 72 h ([1]; 25 °C, pH 7.4, aqueous buffer, thermodynamic from solid, PBS buffer pH 7.4, single experiment II, read-out: Solubility (II)): 259 µg/mL (≈ 980 µM)
solubility at 72 h [1, 11]: 255 ± 3.71 µg/mL (≈ 965 µM)
solubility at 72 h ([1]; pH 7.4, PBS buffer pH 7.4, mean of two experiments (SD 0.00371), read-out: Solubility): 255 µg/mL (≈ 966 µM)
solubility at 72 h ([1]; pH 7.4, PBS buffer pH 7.4, single experiment I, read-out: Solubility (I)): 252 µg/mL (≈ 952 µM)
logD at 48 h [2, 12]: 0.99
logD at 48 h ([2]; pH 7.4, LogD(7.4) (I), single slow-stirring experiment I): 1.01
logD at 48 h ([2]; pH 7.4, LogD(7.4) (II), single slow-stirring experiment II): 0.962
logD at 48 h ([2]; pH 7.4, LogD(7.4) (III), single slow-stirring experiment III): 0.999
